According to PMC11217295, “The immune response to RNA suppresses nucleic acid synthesis by limiting ribose 5-phosphate” (The EMBO Journal, 2024):

Biological target: Ribose 5-Phosphate Isomerase A (RPIA) (Homo sapiens, UniProt P49247)
Assay: continuous spectrophotometric isomerase assay with recombinant RPIA
Type: biochemical
Parameters: recombinant Streptavidin-tagged human RPIA expressed in E. coli
Text: continuous spectrophotometric isomerase assay with recombinant RPIA on Ribose 5-Phosphate Isomerase A (RPIA) | validated its activity against the human isomerase in a continuous spectrophotometric assay.

Ribose 5-Phosphate Isomerase A (RPIA), sequence (P49247 whole entry): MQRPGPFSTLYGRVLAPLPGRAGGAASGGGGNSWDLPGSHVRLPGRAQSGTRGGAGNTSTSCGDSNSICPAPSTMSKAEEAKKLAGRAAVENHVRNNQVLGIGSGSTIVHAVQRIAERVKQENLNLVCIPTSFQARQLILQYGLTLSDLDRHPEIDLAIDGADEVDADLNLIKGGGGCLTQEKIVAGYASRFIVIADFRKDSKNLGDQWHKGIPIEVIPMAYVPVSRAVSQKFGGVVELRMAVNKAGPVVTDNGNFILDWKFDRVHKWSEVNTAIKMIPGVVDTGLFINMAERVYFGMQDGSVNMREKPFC

## O=C(NO)[C@H](O)[C@H](O)COP(=O)(O)O [JNB-hu20-057-2A]
  continuous spectrophotometric isomerase assay with recombinant RPIA: validated its activity against the human isomerase in a continuous spectrophotometric assay. This shows the inhibitor suppresses the activity
